Results: patent US6977262B2, “Dihydropyrazolopyridine compounds and pharmaceutical use thereof” (Mitsubishi Pharma Corporation, priority 2001, dated 2005)

Row | SMILES | melting point
1 | COc1ccc(C2=C(C#N)C(c3cccc4nsnc34)c3c[nH]nc3N2)cc1 (stereo not drawn) [Example 165, 4-(2,1,3-Benzothiadiazol-4-yl)-5-cyano-4,7-dihydro-6-(4-methoxyphenyl)-2H-pyrazolo[3,4-b]pyridine] | 238 °C
2 | N#CC1=C(c2ccsc2)Nc2n[nH]cc2C1c1cccc2nonc12 (stereo not drawn) [Example 174, 4-(2,1,3-Benzoxadiazol-4-yl)-5-cyano-4,7-dihydro-6-(thiophen-3-yl)-2H-pyrazolo[3,4-b]pyridine] | 242 °C
3 | CCCC1=C(C(=O)OCC)C(c2cccc(C#N)c2OC)c2c[nH]nc2N1 (stereo not drawn) [Example 191, Ethyl 4-(3-cyano-2-methoxyphenyl)-4,7-dihydro-6-propyl-2H-pyrazolo[3,4-b]pyridine-5-carboxylate] | 220 to 222 °C
4 | CCCC1=C(C#N)C(c2ccccc2Cl)c2cn(C(=O)OC(C)(C)C)nc2N1 (stereo not drawn) [Example 282, 2-tert-Butoxycarbonyl-4-(2-chlorophenyl)-5-cyano-4,7-dihydro-6-propyl-2H-pyrazolo[3,4-b]pyridine] | 175 °C (dec.)
5 | N#CC1=C(C2CNCCO2)Nc2n[nH]cc2C1c1cccc(C#N)c1Br.O=C(O)C(F)(F)F (stereo not drawn) | 236 °C
6 | N#CC1=C(C2CCCCCC2)Nc2n[nH]cc2C1c1ccccc1Cl (stereo not drawn) [Example 312, 4-(2-Chlorophenyl)-5-cyano-6-cycloheptyl-4,7-dihydro-2H-pyrazolo[3,4-b]pyridine] | 146 °C
7 | CCCC1=C(C(=O)OCC)C(c2ccccc2Cl)c2cnn(C(=O)OC(C)(C)C)c2N1 (stereo not drawn) [Example 204, Ethyl 1-tert-butoxycarbonyl-4-(2-chlorophenyl)-4,7-dihydro-6-propyl-1H-pyrazolo[3,4-b]pyridine-5-carboxylate] | 112 to 116 °C
8 | N#CC1=C(c2ccc3ccccc3c2)Nc2n[nH]cc2C1c1cccc2nonc12 (stereo not drawn) [Example 172, 4-(2,1,3-Benzoxadiazol-4-yl)-5-cyano-4,7-dihydro-6-(naphthalen-2-yl)-2H-pyrazolo[3,4-b]pyridine] | 228 °C
9 | N#CC1=C(c2ccc(Cl)s2)Nc2n[nH]cc2C1c1cccc2nonc12 (stereo not drawn) [Example 298, 4-(2,1,3-Benzoxadiazol-4-yl)-6-(2-chlorothiophen-5-yl)-5-cyano-4,7-dihydro-2H-pyrazolo[3,4-b]pyridine] | 210 °C
10 | CCCC1=C(C(=O)OCC)C(c2cccc(C(F)(F)F)c2Cl)c2c[nH]nc2N1 (stereo not drawn) [Example 47, Ethyl 4-(2-chloro-3-trifluoromethylphenyl)-4,7-dihydro-6-propyl-2H-pyrazolo[3,4-b]pyridine-5-carboxylate] | 236 to 238 °C
11 | CCCC1=C(C#N)C(c2ccccc2Cl)c2c(OC(=O)OC(C)(C)C)n[nH]c2N1 (stereo not drawn) [Example 328, 3-t-Butoxycarbonyloxy-4-(2-chlorophenyl)-5-cyano-4,7-dihydro-6-propyl-1 H-pyrazolo[3,4-b]pyridine] | 182 °C
12 | N#CC1=C(CN2C(=O)c3ccccc3C2=O)Nc2n[nH]cc2C1c1ccccc1Cl (stereo not drawn) [Example 1079, 4-(2-Chlorophenyl)-5-cyano-4,7-dihydro-6-phthalimidomethyl-2H-pyrazolo[3,4-b]pyridine] | > 250 °C
13 | CCCC1=C(C(=O)OCC)C(c2csc3ccccc23)c2c[nH]nc2N1 (stereo not drawn) [Example 75, Ethyl 4-(benzo[b]thiophen-3-yl)-4,7-dihydro-6-propyl-2H-pyrazolo[3,4-b]pyridine-5-carboxylate] | 222 °C
14 | CCCC1=C(C(=O)OCC)C(c2ccccc2Br)c2c[nH]nc2N1 (stereo not drawn) [Example 29, Ethyl 4-(2-bromophenyl)-4,7-dihydro-6-propyl-2H-pyrazolo[3,4-b]pyridine-5-carboxylate] | 223 °C
15 | CCOC(=O)C1=C(C(F)(F)F)Nc2n[nH]cc2C1c1cccc(Cl)c1 (stereo not drawn) [Example 17, Ethyl 4-(3-chlorophenyl)-4,7-dihydro-6-trifluoromethyl-2H-pyrazolo[3,4-b]pyridine-5-carboxylate] | 144 to 145 °C
16 | CN1CCCC(C2=C(C#N)C(c3cccc4nonc34)c3c[nH]nc3N2)C1 (stereo not drawn) [Example 1006, 4-(2,1,3-Benzoxadiazol-4-yl)-5-cyano-4,7-dihydro-6-(1-methylpiperidin-3-yl)-2H-pyrazolo[3,4-b]pyridine] | 228 °C
17 | CCCC1=C(C(=O)OCC)C(c2ccnc3ccccc23)c2c[nH]nc2N1 (stereo not drawn) [Example 74, Ethyl 4,7-dihydro-6-propyl-4-(quinolin-4-yl)-2H-pyrazolo[3,4-b]pyridine-5-carboxylate] | 198 °C
18 | CCOC(=O)C1=C(C(F)(F)F)Nc2n[nH]cc2C1c1ccccc1C(F)(F)F (stereo not drawn) [Example 16, Ethyl 4,7-dihydro-6-trifluoromethyl-4-(2-trifluoromethylphenyl)-2H-pyrazolo[3,4-b]pyridine-5-carboxylate] | 182 to 186 °C

More lines, now with the values ahead:

Row | melting point | SMILES
19 | 248 °C | CCCC1=C(C#N)C(c2ccccc2Cl)c2c[nH]nc2N1 (stereo not drawn) [Example 94, 4-(2-Chlorophenyl)-5-cyano-4,7-dihydro-6-propyl-2H-pyrazolo[3,4-b]pyridine]
20 | > 300 °C | CCC1=C(C#N)C(c2cccc(C#N)c2Cl)c2c[nH]nc2N1 (stereo not drawn) [Example 195, 4-(2-Chloro-3-cyanophenyl)-5-cyano-6-ethyl-4,7-dihydro-2H-pyrazolo[3,4-b]pyridine]
21 | 260 °C | CC(C)N1CCC(C2=C(C#N)C(c3cccc4nonc34)c3c[nH]nc3N2)CC1 (stereo not drawn) [Example 1035, 4-(2,1,3-Benzoxadiazol-4-yl)-5-cyano-4,7-dihydro-6-(1-iso-propylpiperidin-4-yl)-2H-pyrazolo[3,4-b]pyridine]
22 | > 250 °C | N#CC1=C(c2ccccc2)Nc2n[nH]cc2C1c1cccc(C(F)(F)F)c1Cl (stereo not drawn) [Example 202, 4-(2-Chloro-3-trifluoromethylphenyl)-5-cyano-4,7-dihydro-6-phenyl-2H-pyrazolo[3,4-b]pyridine]
23 | 209 °C | CCCC1=C(C(=O)OCC)C(c2nccn2C)c2c[nH]nc2N1 (stereo not drawn) [Example 237, Ethyl 4,7-dihydro-4-(1-methyl-1H-imidazol-2-yl)-6-propyl-2H-pyrazolo[3,4-b]pyridine-5-carboxylate]
24 | > 240 °C | N#CC1=C(C2CCCN2)Nc2n[nH]cc2C1c1cccc2nonc12 (stereo not drawn) [Example 1070, 4-(2,1,3-Benzoxadiazol-4-yl)-5-cyano-4,7-dihydro-6-(pyrrolidin-2-yl)-2H-pyrazolo[3,4-b]pyridine]
25 | 138 to 140 °C | CCCC1=C(C#N)C(c2ccccc2Cl)c2cnn(C(=O)Nc3ccccc3)c2N1 (stereo not drawn) [Example 283, 4-(2-Chlorophenyl)-5-cyano-4,7-dihydro-1-phenylcarbamoyl-6-propyl-1 H-pyrazolo[3,4-b]pyridine]
26 | 115 °C | CCCC1=C(C(=O)OCC)C(c2ccccc2Cl)c2cnn(C(=O)c3ccccc3)c2N1 (stereo not drawn) [Example 210, Ethyl 1-benzoyl-4-(2-chlorophenyl)-4,7-dihydro-6-propyl-1H-pyrazolo[3,4-b]pyridine-5-carboxylate]
27 | 228 °C | N#CC1=C(C2CCN(C(=O)c3ccccc3)CC2)Nc2n[nH]cc2C1c1cccc2nonc12 (stereo not drawn) [Example 1026, 4-(2,1,3-Benzoxadiazol-4-yl)-6-(1-benzoylpiperidin-4-yl)-5-cyano-4,7-dihydro-2H-pyrazolo[3,4-b]pyridine]
28 | 139 to 141 °C | CCCC1=C(C(=O)OCC)C(c2ccccc2)c2c[nH]nc2N1.O=C(O)/C=C\C(=O)O (stereo not drawn) [Example 25, Ethyl 4,7-dihydro-4-phenyl-6-propyl-2H-pyrazolo[3,4-b]pyridine-5-carboxylate maleate]
29 | 250 to 253 °C (dec.) | CCC1=C(C#N)C(c2ccccc2Br)c2c[nH]nc2N1 (stereo not drawn) [Example 199, 4-(2-Bromophenyl)-5-cyano-6-ethyl-4,7-dihydro-2H-pyrazolo[3,4-b]pyridine]
30 | 193 °C | N#CC1=C(C2CCCC2)Nc2n[nH]cc2C1c1cccc2nonc12 (stereo not drawn) [Example 318, 4-(2,1,3-Benzoxadiazol-4-yl)-5-cyano-6-cyclopentyl-4,7-dihydro-2H-pyrazolo[3,4-b]pyridine]
31 | 246 °C | Cc1ccccc1C1C(C#N)=C(c2ccccc2)Nc2n[nH]cc21 (stereo not drawn) [Example 248, 5-Cyano-4,7-dihydro-4-(2-methylphenyl)-6-phenyl-2H-pyrazolo[3,4-b]pyridine]
32 | 236 °C | N#CC1=C(c2ccncc2)Nc2n[nH]cc2C1c1cccc2nonc12 (stereo not drawn) [Example 166, 4-(2,1,3-Benzoxadiazol-4-yl)-5-cyano-4,7-dihydro-6-(pyridin-4-yl)-2H-pyrazolo[3,4-b]pyridine]
33 | 208 °C | N#CC1=C(c2ccc(Br)s2)Nc2n[nH]cc2C1c1cccc2nonc12 (stereo not drawn) [Example 291, 4-(2,1,3-Benzoxadiazol-4-yl)-6-(2-bromothiophen-5-yl)-5-cyano-4,7-dihydro-2H-pyrazolo[3,4-b]pyridine]
34 | 145 to 147 °C | CCCC1=C(C(=O)OCC)C(c2ccccc2Cl)c2cn(C(=O)Nc3ccccc3)nc2N1 (stereo not drawn) [Example 215, Ethyl 4-(2-chlorophenyl)-4,7-dihydro-2-phenylcarbamoyl-6-propyl-2H-pyrazolo[3,4-b]pyridine-5-carboxylate]
35 | > 250 °C | COc1ccccc1C1C(C#N)=C(C(C)C)Nc2n[nH]cc21 (stereo not drawn) [Example 265, 5-Cyano-4,7-dihydro-6-isopropyl-4-(2-methoxyphenyl)-2H-pyrazolo[3,4-b]pyridine]
36 | > 250 °C | CC(C)C1=C(C#N)C(c2cccc(C#N)c2Br)c2c[nH]nc2N1 (stereo not drawn) [Example 260, 4-(2-Bromo-3-cyanophenyl)-5-cyano-4,7-dihydro-6-isopropyl-2H-pyrazolo[3,4-b]pyridine]
37 | > 270 °C | N#CC1=C(C2CCNCC2)Nc2n[nH]cc2C1c1cccc(C#N)c1Br (stereo not drawn) [Example 1037, 4-(2-Bromo-3-cyanophenyl)-5-cyano-4,7-dihydro-6-(piperidin-4-yl)-2H-pyrazolo[3,4-b]pyridine]
38 | 194 °C | N#CC1=C(C2CCC2)Nc2n[nH]cc2C1c1cccc2nonc12 (stereo not drawn) [Example 322, 4-(2,1,3-Benzoxadiazol-4-yl)-5-cyano-6-cyclobutyl-4,7-dihydro-2H-pyrazolo[3,4-b]pyridine]
39 | 261 °C | Cc1cccc(C2C(C#N)=C(C(C)C)Nc3n[nH]cc32)c1[N+](=O)[O-] (stereo not drawn) [Example 339, 5-Cyano-4,7-dihydro-4-(3-methyl-2-nitrophenyl)-6-isopropyl-2H-pyrazolo[3,4-b]pyridine]
